Earlier results, collected in PubChem BioAssay AID1259409 (Chemical Carcinogenesis Research Information System (CCRIS), 2018).

Test system: rodent chemically induced tumor inhibition, incidence and multiplicity
Assay: CCRIS tumor inhibitor studies
Settings: Dose [Inhibitor]: 0, Species: RAT

## NCCS
Carcinogen: 7,12-DIMETHYLBENZ[A]ANTHRACENE, 57-97-6, 0.015 MOL/KG DIET BEGINNING 2 WK PRIOR TO CARCINOGEN AND CONTINUED FOR STUDY DURATION (STUDY DURATION: 25 WK), Route [Inhibitor]: ORAL, Strain/Sex: CD-1/FEMALE, Target Tissue: Type of Lesion: MAMMARY GLAND: ADENOCARCINOMA, Dose [Carcinogen]: 10 MG ONCE, Promoter: NONE USED
  tumour outcome (control, treated, inhibition, significance): 18/25 (72%), 17/25 (68%), 5%, not significant
Carcinogen: 7,12-DIMETHYLBENZ[A]ANTHRACENE, 57-97-6, 0.03 MOL/KG DIET BEGINNING 2 WK PRIOR TO CARCINOGEN AND CONTINUED FOR STUDY DURATION (STUDY DURATION: 25 WK), Route [Inhibitor]: ORAL, Strain/Sex: CD-1/FEMALE, Target Tissue: Type of Lesion: MAMMARY GLAND: ADENOCARCINOMA, Dose [Carcinogen]: 10 MG ONCE, Promoter: NONE USED
  tumour outcome (control, treated, inhibition, significance): 18/25 (72%), 12/25 (48%), 33%, not significant
Carcinogen: 7,12-DIMETHYLBENZ[A]ANTHRACENE, 57-97-6, 0.06 MOL/KG DIET BEGINNING 2 WK PRIOR TO CARCINOGEN AND CONTINUED FOR STUDY DURATION (STUDY DURATION: 25 WK), Route [Inhibitor]: ORAL, Strain/Sex: CD-1/FEMALE, Target Tissue: Type of Lesion: MAMMARY GLAND: ADENOCARCINOMA, Dose [Carcinogen]: 10 MG ONCE, Promoter: NONE USED
  tumour outcome (control, treated, inhibition, significance): 18/25 (72%), 13/25 (52%), 28%, not significant
Carcinogen: AZOXYMETHANE, 25843-45-2, 25 MG/KG IN 0.9% SODIUM CHLORIDE 1/2 D FOR 40 WK ADMINISTERED CONCURRENTLY WITH CARCINOGEN (STUDY DURATION: 40 WK), Route [Inhibitor]: SUBCUTANEOUS, Strain/Sex: WISTAR, Target Tissue: Type of Lesion: COLON: TUMOR, Dose [Carcinogen]: 7.4 MG/KG IN 0.9% SODIUM CHLORIDE SOLUTION 1/WK FOR 10 WK, Promoter: NONE USED
  tumour outcome (control, treated, inhibition, significance): 17/18 (94%), 7/17 (41%), 56%, p<0.01
Carcinogen: N-METHYL-N'-NITRO-N-NITROSOGUANIDINE, 70-25-7, 5 MG/KG 1/2 D ADMINISTERED SIMULTANEOUSLY WITH 30 MG/KG SULPIRIDE BEGINNING 1 WK POST CARCINOGEN TREATMENT AND CONTIN, Route [Inhibitor]: SUBCUTANEOUS, Strain/Sex: WISTAR/MALE, Target Tissue: Type of Lesion: STOMACH: ADENOCARCINOMA, Dose [Carcinogen]: 50 UG/ML IN DRINKING WATER FOR 25 WK, Promoter: NONE USED
  tumour outcome (control, treated, inhibition, significance): 13/18 (72%), 5/20 (25%), 65%, not calculated
Carcinogen: N-METHYL-N'-NITRO-N-NITROSOGUANIDINE, 70-25-7, 5 MG/KG 1/2 D BEGINNING 1 WK POST CARCINOGEN TREATMENT AND CONTINUING FOR DURATION OF STUDY (STUDY DURATION: 52 WK), Route [Inhibitor]: SUBCUTANEOUS, Strain/Sex: WISTAR/MALE, Target Tissue: Type of Lesion: STOMACH: ADENOCARCINOMA, Dose [Carcinogen]: 50 UG/ML IN DRINKING WATER FOR 25 WK, Promoter: NONE USED
  tumour outcome (control, treated, inhibition, significance): 13/18 (72%), 13/20 (65%), 10%, not significant
Carcinogen: N-METHYL-N'-NITRO-N-NITROSOGUANIDINE, 70-25-7, 5 MG/KG IN 1 ML/KG OLIVE OIL 1/2 D FOR STUDY DURATION BEGINNING POST CARCINOGEN TREATMENT (STUDY DURATION: 52 WK), Route [Inhibitor]: SUBCUTANEOUS, Strain/Sex: WISTAR/MALE, Target Tissue: Type of Lesion: GLANDULAR STOMACH: ADENOCARCINOMA, Dose [Carcinogen]: 50 UG/ML DRINKING WATER FOR 25 WK
  tumour outcome (control, treated, inhibition, significance): 13/18 (72%), 13/20 (65%), 10%, not significant
Carcinogen: N-METHYL-N'-NITRO-N-NITROSOGUANIDINE, 70-25-7, 25 MG/KG 1/2 D ADMINISTERED SIMULTANEOUSLY WITH 30 MG/KG SULPIRIDE BEGINNING 1 WK POST CARCINOGEN TREATMENT AND CONTI, Route [Inhibitor]: SUBCUTANEOUS, Strain/Sex: WISTAR/MALE, Target Tissue: Type of Lesion: STOMACH: ADENOCARCINOMA, Dose [Carcinogen]: 50 UG/ML IN DRINKING WATER FOR 25 WK, Promoter: NONE USED
  tumour outcome (control, treated, inhibition, significance): 13/18 (72%), 6/20 (30%), 58%, not calculated
Carcinogen: N-METHYL-N'-NITRO-N-NITROSOGUANIDINE, 70-25-7, 25 MG/KG 1/2 D BEGINNING 1 WK POST CARCINOGEN TREATMENT AND CONTINUING FOR DURATION OF STUDY (STUDY DURATION: 52 WK), Route [Inhibitor]: SUBCUTANEOUS, Strain/Sex: WISTAR/MALE, Target Tissue: Type of Lesion: STOMACH: ADENOCARCINOMA, Dose [Carcinogen]: 50 UG/ML IN DRINKING WATER FOR 25 WK, Promoter: NONE USED
  tumour outcome (control, treated, inhibition, significance): 13/18 (72%), 6/20 (30%), 58%, p<0.05
Carcinogen: N-METHYL-N'-NITRO-N-NITROSOGUANIDINE, 70-25-7, 25 MG/KG IN 0.9% SALINE 1/2 D BEGINNING 1 WK POST LAST CARCINOGEN DOSE AND CONTINUING FOR DURATION OF STUDY (STUDY DU, Route [Inhibitor]: SUBCUTANEOUS, Strain/Sex: WISTAR/MALE, Target Tissue: Type of Lesion: STOMACH: ADENOCARCINOMA, Dose [Carcinogen]: 100 UG/ML IN DRINKING WATER FOR 25 WK, Promoter: NONE USED
  tumour outcome (control, treated, inhibition, significance): 16/20 (80%), 10/22 (45%), 44%, p<0.05
